Test system: Noctuidae
Test: Sticky board trap comparison of attractant blends beside cotton crops
Assay type: in vivo
Source text: Comparisons of a range of attractant blends were made using sticky board traps adjacent to cotton crops on the Darling Downs region of Queensland, Australia. This experimental set up allowed comparison of attractants in the presence of the crop volatiles without confusing factors such as the effect of non-volatile feeding stimulants.
A series of rectangular boards 1.2 metres high×1.5 metres wide were placed approximately 1 metre outside the edge of a cotton field at spacings of 50 metres. The boards were suspended at a height of 1 metre above the ground using star posts. Four 100 mm diameter round holes were made in the centre of the boards and cotton wicks containing experimental attractant mixes were suspended in these holes using a paper clip. The boards were coated on both sides with 500 to 700 grams of polybutene sticker so insects attracted to the experimental volatiles would become trapped on the boards. Impregnated wicks were placed in the traps mid afternoon and traps were checked after 48 hours.

O=CCc1ccccc1 [PAA, Phenylacetaldehyde]
Mean (Moths/board) (Table 3, total of all Noctuidae, 3.12 mg of each ingredient per sticky board, traps checked after 48 hours): 1.00 Moths/board | Comparison of moth catch in words (Table 3 experiment, sticky traps): not significantly attractive
